According to ChEMBL document CHEMBL1201862, “PubChem BioAssay data set” (2004):
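Five concentrations, 48 hours, 96-well plates. The concentration for 50% growth inhibition is given as GI50.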 Activity calls are given as the source filed them. Rule as the data show it: active = GI50 up to about 1.1 µM and inactive = higher.

Columns and labels:
Experiment in all cases: NCI anticancer screen, dose series, 48 h
UACC-62 = system: UACC-62
EKVX = system: EKVX
NCI-H460 = system: NCI-H460
OVCAR-8 = system: OVCAR-8
SNB-19 = system: SNB-19
NCI-H522 = system: NCI-H522
A498 = system: A498
KM12 = system: KM12
SNB-78 = system: SNB-78
HT-29 = system: HT-29
HCC 2998 = system: HCC 2998
HCT-116 = system: HCT-116
NCI/ADR-RES = system: NCI/ADR-RES
OVCAR-3 = system: OVCAR-3
M14 = system: M14
Hs-578T = system: Hs-578T
HOP-62 = system: HOP-62
SR = system: SR
MDA-N = system: MDA-N
DU-145 = system: DU-145

SMILES | GI50 (UACC-62) | GI50 (EKVX) | GI50 (NCI-H460) | GI50 (OVCAR-8) | GI50 (SNB-19) | GI50 (NCI-H522) | GI50 (A498) | GI50 (KM12) | GI50 (SNB-78) | GI50 (HT-29) | GI50 (HCC 2998) | GI50 (HCT-116) | GI50 (NCI/ADR-RES) | GI50 (OVCAR-3) | GI50 (M14) | GI50 (Hs-578T) | GI50 (HOP-62) | GI50 (SR) | GI50 (MDA-N) | GI50 (DU-145)
CN(CCO)/N=N/c1n[nH]cc1C(N)=O | > 100 µM (inactive) | > 100 µM (inactive) | > 100 µM (inactive) | > 100 µM (inactive) | > 100 µM (inactive) | > 100 µM (inactive) | > 100 µM (inactive) | > 100 µM (inactive) | > 100 µM (inactive) | > 100 µM (inactive) | > 100 µM (inactive) | > 100 µM (inactive) | > 100 µM (inactive) | > 100 µM (inactive) |  |  |  |  |  | 
CCCCCCCCCCCCCCCC(=O)OCC(C[As](=O)(O)O)OC(=O)CCCCCCCCCCCCCCC (centres undefined) | > 100 µM (inactive) | > 100 µM (inactive) | > 100 µM (inactive) | > 100 µM (inactive) | > 56.8 µM (inactive) | > 100 µM (inactive) | > 100 µM (inactive) | > 100 µM (inactive) | 22.4 µM (inactive) | > 100 µM (inactive) | > 100 µM (inactive) | > 100 µM (inactive) | > 100 µM (inactive) | > 100 µM (inactive) | > 100 µM (inactive) | 58.5 µM (inactive) | > 70.3 µM (inactive) | > 100 µM (inactive) | > 100 µM (inactive) | 
O=C(c1cc2c(C(F)(F)F)onc2c2ccccc12)C(F)(F)F | 2.98 µM (inactive) | 7.38 µM (inactive) | 1.24 µM (inactive) | 1.78 µM (inactive) | 3.8 µM (inactive) | 1.78 µM (inactive) | 12.7 µM (inactive) | 0.746 µM (active) | 0.236 µM (active) | 3.7 µM (inactive) | 4.55 µM (inactive) | 0.0452 µM (active) |  | 2.22 µM (inactive) | 3.94 µM (inactive) |  | 2.44 µM (inactive) | 1.41 µM (inactive) |  | 
CC1OC(OC2CC(O)(C(=O)CO)Cc3c(O)c4c(c(O)c32)C(=O)c2ccccc2C4=O)CC(N)C1O (centres undefined) | 0.0101 µM (active) | 0.158 µM (active) | < 0.01 µM (active) | 0.0171 µM (active) | < 0.01 µM (active) | < 0.0183 µM (active) | < 0.01 µM (active) | 0.0168 µM (active) | 0.0637 µM (active) | < 0.0135 µM (active) | < 0.01 µM (active) | < 0.01 µM (active) |  | 0.106 µM (active) | < 0.015 µM (active) | 0.0206 µM (active) | < 0.01 µM (active) | < 0.01 µM (active) | 0.0652 µM (active) | 0.0101 µM (active)
Cc1cc(/N=C2\C=C(Nc3cc(C)on3)C(=O)c3ccccc32)no1 | 12 µM (inactive) | > 66.2 µM (inactive) | > 67.8 µM (inactive) | 37.3 µM (inactive) | 61 µM (inactive) | > 100 µM (inactive) | > 100 µM (inactive) | > 71.8 µM (inactive) | 24.7 µM (inactive) | 49.7 µM (inactive) | > 100 µM (inactive) | 53.7 µM (inactive) | 69 µM (inactive) | > 100 µM (inactive) | 34.7 µM (inactive) | 13.2 µM (inactive) | > 61.1 µM (inactive) | > 100 µM (inactive) | 1.96 µM (inactive) | 52.5 µM (inactive)
OCC#CCNCl | > 100 µM (inactive) | > 100 µM (inactive) | > 100 µM (inactive) | > 100 µM (inactive) | > 100 µM (inactive) | > 100 µM (inactive) | > 100 µM (inactive) | > 100 µM (inactive) | > 100 µM (inactive) | > 28.1 µM (inactive) | > 100 µM (inactive) | > 100 µM (inactive) | > 100 µM (inactive) | > 100 µM (inactive) |  |  | > 100 µM (inactive) |  |  | 
COc1cc([C@@H]2c3cc4c(cc3[C@@H](OC3OC5COC(C)OC5C(O)C3O)[C@H]3COC(=O)[C@H]23)OCO4)cc(OC)c1O (some centres undefined) | 6.11 µM (inactive) | 27.7 µM (inactive) | 0.533 µM (active) | 11.3 µM (inactive) |  | 6.03 µM (inactive) | 7.14 µM (inactive) | 18.6 µM (inactive) | 46.8 µM (inactive) | 28.8 µM (inactive) | 9.02 µM (inactive) | 13.6 µM (inactive) | 65.5 µM (inactive) | 39.4 µM (inactive) |  | 0.735 µM (active) | 1.97 µM (inactive) |  | 0.968 µM (active) | 0.849 µM (active)
COC(=O)C12OCC34C(CC5C(C)=C(O)C(=O)CC5(C)C3C(O)C1O)OC(=O)C(OC(=O)C=C(C)C)C24 (centres undefined) | > 500 µM (inactive) | > 469 µM (inactive) | 161 µM (inactive) | > 500 µM (inactive) | 368 µM (inactive) | 301 µM (inactive) | > 500 µM (inactive) | 411 µM (inactive) | > 476 µM (inactive) | > 500 µM (inactive) | 453 µM (inactive) | > 489 µM (inactive) | > 500 µM (inactive) |  | < 0.215 µM (active) | < 0.215 µM (active) | > 500 µM (inactive) | 0.215 µM (active) | < 0.215 µM (active) | 0.318 µM (active)
